Here are results for 14 compounds from US5760036A, “Aminediol protease inhibitors” (E. R. Squibb & Sons, Inc., priority 1995, dated 1998).

Where two headings read alike, the source gives them in different places.

For one experiment, the target named is T1, HIV protease (Human immunodeficiency virus type 1 group M subtype B, UniProt P04585).
T1 construct: and purified protease
Kind of experiment: HIV Protease Assay. In kind it is biochemical. In outline: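 At a single final concentration of 10 μM (4% DMSO), inhibitors were added to a 30-minute, 37° C reaction of purified enzyme with 450 μM H2N-Val-Ser-Gln-Asn-(β-naphthyl-alanine)-Pro-Val-Ile-OH at pH 5.5 (sodium acetate, BSA). Hydrolysis was quantified by reverse-phase HPLC with 220 nm detection after acid quench.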

Experiment [1] has as its system RF strain of HIV (CEM-SS cells). Kind of experiment: Cell Culture Anti-HIV Activity (cell viability, formazan). Type of experiment: cell-based. The conditions noted are these: Human immunodeficiency virus 1, CEM-SS, 144 h, CEM-SS cells, RF strain of HIV, multiplicity of infection 0.04, 6 days at 37° C., 450 nm; read-out: HIV (CEM Cells) IC50. A digest of the protocol:
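Half-log compound dilutions added to CEM-SS cells (5000/well) carrying HIV RF (MOI 0.04), 6 days, 37° C. Cell protection measured as formazan from tetrazolium, A450. IC50: drug level restoring infected-cell formazan to 50% of the uninfected untreated control.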

The mark [2] stands for this setting: pH 5.5, 10 μM inhibitor, 4% DMSO, 450 μM substrate, pH 5.5, 30 minutes at 37° C., RP-HPLC, read-out: HIV Protease % Inhibition at 10 μM.
[3] abbreviates: pH 5.5, read-out: HIV Protease % Inhibition at 10 μM.

In the case of `CC(C)(C)OC(=O)N[C@@H](Cc1ccccc1)[C@H](O)CNC[C@@H](O)[C@H](Cc1ccccc1)NC(=O)OCCO` [Compound 241, [R-(R*,S*)]-[Iminobis[2-hydroxy-1-(phenylmethyl)-3,1-propanediyl)]biscarbamic acid, 1,1-dimethylethyl-2-hydroxyethyl ester], the inhibition at 10 µM at HIV protease (setting [2]) amounted to 95%. Also, the IC50 in experiment [1] worked out at 280 nM.

Regarding `CC(C)(C)OC(=O)N[C@@H](Cc1ccccc1)[C@H](O)CNC[C@@H](O)[C@H](Cc1ccc(OCc2nc3ccccc3o2)cc1)NC(=O)OC(C)(C)C` [Compound 242, [1S-[1R*,2S*(2S*,3R*)]]-[3-[[4-[4-[(2-Benzoxazolyl)methoxy]phenyl]-3-[[(1,1-dimethylethoxy)carbonyl]amino]-2-hydroxybutyl]amino]-2-hydroxy-1-(phenylmethyl)propyl]carbamic acid, 1,1-dimethylethyl ester], at HIV protease (setting [2]), the inhibition at 10 µM stood at 99%. For the same compound, the IC50 in experiment [1] was found to be 110 nM.

As for `CC(C)(C)OC(=O)N[C@@H](Cc1ccccc1)[C@H](O)CNC[C@@H](O)[C@H](Cc1ccc(OCCCc2nc3ccccc3o2)cc1)NC(=O)OC(C)(C)C` [Compound 244, [1S-[1R*,2S*(2S*,3R*)]]-[3-[[3-[[(1,1-Dimethylethoxy)carbonyl]amino]-2-hydroxy-4-[4-[3-[(2-benzoxazolyl)-propoxy]phenyl]butyl]amino]-2-hydroxy-1-(phenylmethyl)propyl]carbamic acid, 1,1-dimethylethyl ester], the inhibition at 10 µM at HIV protease (setting [2]) stood at 100%. The IC50 in experiment [1] is 1500 nM.

As to `CC(C)(C)OC(=O)N[C@@H](Cc1ccccc1)[C@H](O)CNC[C@@H](O)[C@H](Cc1ccccc1)NC(=O)OC(C)(C)CF` [Compound 252, [1S-(1R*,2S*)]-[Iminobis[2-hydroxy-1-(phenylmethyl)-3,1-propanediyl]]biscarbamic acid 2-fluoro-1,1-dimethylethyl 1,1-dimethylethyl ester], at HIV protease (setting [2]), the inhibition at 10 µM came to 99%. The 50% inhibitory concentration (IC50) in experiment [1] came to 60 nM.

As to `CC(C)(C)OC(=O)N[C@@H](Cc1ccccc1)[C@H](O)CNC[C@@H](O)[C@H](Cc1ccccc1)NC(=O)OCc1cccnc1` [Compound 256, [R-(R*,S*)]-[Iminobis[2-hydroxy-1-(phenylmethyl)-3,1-propanediyl)]biscarbamic acid. 1,1-dimethylethyl-3-pyridinylmethyl ester], the inhibition at 10 µM on HIV protease (setting [2]) was determined as 88%. The IC50 in experiment [1] was determined as 1500 nM.

With `CC(C)(C)OC(=O)N[C@@H](Cc1ccccc1)[C@H](O)CNC[C@@H](O)[C@H](Cc1ccccc1)NC(=O)[C@@H](NC(=O)OCc1nc2ccccc2o1)C(C)(C)C` [Compound 257, [S-[1R*,2S*(2S*,3R*)]]-[2,2-Dimethyl-1-[[[3-[[3-[[(1,1-dimethylethoxy)carbonyl]amino]-2-hydroxy-4-phenylbutyl]-amino]-2-hydroxy-1-(phenylmethyl)propyl]amino]-carbonyl]propyl]carbamic acid, (2-benzoxazolyl)methyl ester], the inhibition at 10 µM on HIV protease (setting [2]) worked out at 99%. Besides, the IC50 in experiment [1] turned out to be 30 nM.

Regarding `CC(OC(=O)N[C@@H](Cc1ccccc1)[C@H](O)CNC[C@@H](O)[C@H](Cc1ccccc1)NC(=O)OC(C)(C)C)c1cccnc1` (stereo partly drawn) [Compound 258, [R-(R*,S*)]-[Iminobis[2-hydroxy-1-(phenylmethyl)-3,1-propanediyl)]biscarbamic acid. 1,1-dimethylethyl-1-(3-pyridinyl)ethyl ester], the inhibition at 10 µM at HIV protease (setting [2]) was 91%. Further, the IC50 in experiment [1] was 1500 nM.

As to `CC(C)(C)OC(=O)N[C@@H](Cc1ccccc1)[C@H](O)CNC[C@@H](O)[C@H](Cc1ccccc1)NC(=O)[C@@](C)(O)C(C)(C)C` [Compound 261, [1S-[1R*,2S*[2R*,3R*(R*)]]]-[3-[[3-[(2-Hydroxy-2,3,3-trimethyl-1-oxobutyl)amino]-2-hydroxy-4-phenylbutyl]amino]-2-hydroxy-1--(phenylmethyl)propyl]carbamic acid, 1,1-dimethylethyl ester], the inhibition at 10 µM on HIV protease (setting [3]) was 94%. For the same compound, the IC50 in experiment [1] came out at 1100 nM.

`CC(C)(C)OC(=O)N[C@@H](Cc1ccccc1)[C@H](O)CNC[C@@H](O)[C@H](Cc1ccccc1)NC(=O)[C@](C)(O)C(C)(C)C` [Compound 262, [1S-[1R*,2S*[2S*,3R*(S*)]]]-[3-[[3-[(2-Hydroxy-2,3,3-trimethyl-1-oxobutyl)amino]-2-hydroxy-4-phenylbutyl]amino]-2-hydroxy-1-(phenylmethyl)propyl]carbamic acid, 1.1-dimethylethyl ester]: the inhibition at 10 µM on HIV protease (setting [3]) amounted to 100%. The IC50 in experiment [1] is 30 nM.

Turning to `C[C@@H](O)C(C)(C)OC(=O)N[C@@H](Cc1ccccc1)[C@H](O)CNC[C@@H](O)[C@H](Cc1ccccc1)NC(=O)OC(C)(C)C` [Compound 275, [1S-[1R*,2S*),(S*)]-[Iminobis [2-hydroxy-1-(phenylmethyl)-3,1-propanediyl]]biscarbamic acid, 1,1-dimethylethyl 2-hydroxy-1,1-dimethylpropyl ester], the inhibition at 10 µM on HIV protease (setting [2]) is 95%. The IC50 in experiment [1] was determined as 450 nM.

With `CC(C)(C)OC(=O)N[C@@H](C/C=C/c1ccc(OCC(=O)N2CCOCC2)cc1)[C@H](O)CNC[C@@H](O)[C@H](Cc1ccccc1)NC(=O)OC(C)(C)C` [Compound 276, [1S-[1R*,2S*(2S*,3R*)]]-[3-[[3-[[(1,1-Dimethylethoxy)carbonyl]amino]-2-hydroxy-6-[4-[2-(4-morpholinyl)-2-oxoethoxy]phenyl]-5-hexenyl]amino]-2-hydroxy-1-(phenylmethyl)propyl]carbamic acid, 1,1-dimethylethyl ester], the inhibition at 10 µM at HIV protease (setting [2]) came out at 97%. Besides, in experiment [1], the IC50 came to 130 nM.

Regarding `CC(C)(C)OC(=O)N[C@@H](Cc1ccccc1)[C@H](O)CNC[C@@H](O)[C@H](Cc1ccccc1)NC(=O)C(C)(C)O` [Compound 278, [1S-[1R*,2S*(2S*,3R*)]]-[2-Hydroxy-3-[[2-hydroxy-3-[(2-hydroxy-2-methyl-1-oxoproply)amino]-4-phenylbutyl]amino]-1-(phenylmethyl)propyl]carbamic acid, 1,1-dimethylethyl ester], the inhibition at 10 µM at HIV protease (setting [3]) stood at 94%. Moreover, the IC50 in experiment [1] was 840 nM.

Turning to `CC(C)(C)OC(=O)N[C@@H](Cc1ccccc1)[C@H](O)CNC[C@@H](O)[C@H](Cc1ccc(OCCc2ccccn2)cc1)NC(=O)OC(C)(C)CO` [Compound 282, [1S-[1R*,2S*(2S*,3R*)]]-[3-[[3-[[(1,1-Dimethylethoxy)carbonyl]amino]-2-hydroxy-4-phenylbutyl]amino]-2-hydroxy-1-[[4-[2-(2-pyridinyl)ethoxy]phenyl]methyl]propyl]carbamic acid, 2-hydroxy-1,1-dimethylethyl ester], the inhibition at 10 µM at HIV protease (setting [2]) is 100%. Besides, the IC50 in experiment [1] worked out at 60 nM.

Turning to `COCCOc1ccc(C[C@H](NC(=O)OC(C)(C)CO)[C@H](O)CNC[C@@H](O)[C@H](Cc2ccccc2)NC(=O)OC(C)(C)C)cc1` [Compound 283, [1S-[1R*,2S*(2S*,3R*)]]-[3-[[3-[[(1,1-Dimethylethoxy)carbonyl]amino]-2-hydroxy-4-phenylbutyl]amino]-2-hydroxy-1-8 [4-(2-methoxyethoxy)phenyl]methyl]propyl]carbamic acid, 2-hydroxy-1,1-dimethylethyl ester], the inhibition at 10 µM on HIV protease (setting [2]) is 100%. In experiment [1], the IC50 worked out at 110 nM.

Broadly, the inhibition is the drop in the measured response relative to a control, in per cent. For orientation: IC50 means the concentration that gives 50% inhibition.
